We go through two compounds from patent publication US11078496B2, “System for F-box hormone receptor regulated protein expression in mammalian cells” (ICAHN SCHOOL OF MEDICINE AT MOUNT SINAI, priority 2016, dated 2021).

Where two headings read alike, the source gives them in different places.

Series [1] deals with AID-fused proteins in mammalian cells. The conditions noted are these: cited from earlier work.
The target of a further series is T1, AID^47-CHK1 (A-CHK1) (UniProt P93830+Q7XVM8).
T1 construct: (encoding NP_001052659); 47-amino acid segment that corresponds to amino acids 63-109 of A. thaliana IAA17; expressed in transfected cells; host or cells: CCE mESCs (lentiviral pRAIDRS)
In words: Auxin-dependent depletion of A-CHK1 in mESCs (western blot). It is filed as cell-based, mouse. On the procedure: FIG. 5A is a western blot analysis depicting endogenous CHK1 (*) and AID^47-CHK1 (A-CHK1, **) in four selected clones and in parental non-infected mESCs. […] serves as a loading control. Experiment was repeated three times for clones #1 and #2, and a representative blot is presented. In FIG. 5B, A-CHK1 #2 mESCs were treated with ethanol (“Con”) or auxin (“IAA”) for 1 day. Cells were then treated with the indicated concentrations of aphidicolin (“Aph”). Equal concentrations of DMSO were applied to all conditions. The next day, cells were stained with crystal violet and plates were scanned. […] In FIG. 5C, mESC clones were pretreated with […] aphidicolin for 1 day and were then treated with auxin for the indicated time periods. Left panel: mitotic index was calculated as the percentage of H3^pS10-positive cells with 4N DNA content, measured by flow cytometry. Right panel: dot plots for A-CHK1 #2 mESCs treated with auxin for 0 or 45 minutes. Mitotic cells are gated. FIG. 5D show bright-field microscope images of cells treated as in FIG. 5C. Images show synchronous cell rounding, a feature of late mitotic cells, 2 hours following auxin treatment in aphidicolin-treated A-CHK1 #2 cells. FIG. 5E is a western blot analysis of cells treated as in FIG. 5C. Tyr15 phosphorylation of CDK1 (“CDKlpY^15”) was detected using a phospho-specific antibody. β-Actin serves as a loading control. […] Error bars represent standard deviation of three technical replicates. […]
Cells were lysed in RIPA-B buffer (20 mM Na2HPO4 pH 7.4, 150 mM NaCl and 1% Triton X-100) supplemented with Protease Inhibitor Cocktail (Roche) for 30 minutes on ice with occasional vortexing, followed by 30 minutes centrifugation at 13,000 relative centrifugal force at 4° C. […] Luminescence was detected with X-ray films, which were scanned, or using the Bio-Rad ChemiDoc MP System. […] Quantification of protein level was performed using the ImageJ software (Schneider et al., “NIH Image to ImageJ: 25 Years of Image Analysis,” Nat. Methods 9:671-675 2012), which is hereby incorporated by reference in its entirety). […]
(In general: In western blotting, separated proteins are transferred to a membrane and probed.)

The next series relates to human ESCs. In words: mRNA-Seq of H9 hESCs treated with coronatine. It is filed as cell-based. The conditions noted are these: H9 cells, 50 μM coronatine, 2 days.

T1 sequence (Q7XVM8 whole entry, the tested form may be a part): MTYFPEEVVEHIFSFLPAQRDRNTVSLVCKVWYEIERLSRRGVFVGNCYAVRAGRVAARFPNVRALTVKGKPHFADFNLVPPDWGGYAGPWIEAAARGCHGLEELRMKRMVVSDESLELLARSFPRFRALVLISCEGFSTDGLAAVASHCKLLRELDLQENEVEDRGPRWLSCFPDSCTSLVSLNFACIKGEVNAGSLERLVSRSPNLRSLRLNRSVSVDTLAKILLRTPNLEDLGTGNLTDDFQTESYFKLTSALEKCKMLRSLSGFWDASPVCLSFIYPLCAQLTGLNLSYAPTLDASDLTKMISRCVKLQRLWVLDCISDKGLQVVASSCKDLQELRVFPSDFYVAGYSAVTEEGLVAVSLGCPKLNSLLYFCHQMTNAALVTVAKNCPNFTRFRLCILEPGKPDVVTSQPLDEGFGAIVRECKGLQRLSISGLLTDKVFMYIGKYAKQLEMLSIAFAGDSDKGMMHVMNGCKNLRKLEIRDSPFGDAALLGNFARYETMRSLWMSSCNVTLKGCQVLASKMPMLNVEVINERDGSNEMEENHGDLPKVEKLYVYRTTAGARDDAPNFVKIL
T1 sequence (P93830 63-109): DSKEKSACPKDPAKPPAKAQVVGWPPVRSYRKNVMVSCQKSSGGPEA

With `O=C(O)Cc1c[nH]c2ccccc12` [auxin, indole-3-acetic acid], the “rapidity of auxin-dependent protein depletion” value in series [1] (reported by Han et al.) was approximately 90 min; in series [1] (reported by Holland et al.), 60 to 100 min; in series [1] (reported by Lambrus et al.), 10 to 30 min; in series [1] (reported by Rodriguez-Bravo et al.), more than 120 min. Moreover, the “time of auxin-dependent depletion of CHK1” value at AID^47-CHK1 (A-CHK1) (aphidicolin-treated mESCs) worked out at 20 min. On AID^47-CHK1 (A-CHK1) (pRAIDRS system, auxin-dependent protein depletion), the “time for >95% degradation of CHK1” value was in the range of 20 to 30 min. In addition, at AID^47-CHK1 (A-CHK1) (selected mESC clones, western blot), the “auxin-dependent degradation of A-CHK1” value was “complete auxin-dependent degradation”.
Take `CC[C@H]1C=C(C(=O)N[C@@]2(C(=O)O)C[C@@H]2CC)[C@H]2CCC(=O)[C@H]2C1` [coronatine, Coronatine]: the “effect on global gene expression patterns” value with human ESCs (mRNA-Seq) is “does not affect global gene expression patterns”. In the series on human ESCs (P<0.05 and fold change >2 in both replicates), the “genes with differential expression between coronatine and control samples” value is on record as “only two genes”.
